Reference: patent publication US8158811B2, “Unsaturated fatty hydroxy acid derivatives and the dermocosmetologic use thereof” (Pierre Fabre Dermo-Cosmetique, priority 2005, dated 2012)

Key:
[1] = system: intracellular AOSs, fibroblast line L929; assay: in vitro assay of intracellular AOSs (H2DCF-DA probe) after H2O2/iron oxidative stress; type: cell-based, murin; details: pre-incubation 3 h
From the text: We set up an in vitro study model of oxidative stress induced by H2O2/iron as H2O2 generates huge amounts of intracellular AOSs as a result of a chain reaction triggered by oxidation of membrane lipids.
This technique is based on the use of a fluorescent probe, 6-carboxy-2′,7′-dichlorodihydro fluorescein diacetate, di (acetoxymethyl ester) (H2DCF-DA) which once it penetrates into the cell is deacetylated by intracellular esterases and thus forms H2DCF. This product is oxidized by intracellular AOSs into a highly fluorescent compound: 2′,7′-dichlorofluorescein (DCF) (Suematsu M et al., 1996, Free Radicals Practical Approach, Punchard ed. P 83-99).
The materials and methods used for in vitro assay of intracellular AOSs are given below. • a) Cell tool • Cutaneous murin fibroblast cell line L929. • b) Materials • 96 well flat based microplate. • Cytofluor II cytofluorameter: Ref. PERCEPTIVE BIOSYSTEMS. • c) Reagents • Cell culture reagents: • Dulbecco's Modified Eagle Medium as the culture medium (DMEM) • Foetal calf serum • Phosphate buffer PBS pH 7.4 • Trypsin EDTA (1X) Fluorescent probe • 6-carboxy-2′,7′-dichlorodihydrofluorescein diacetate, di(acetoxymethyl ester) (PM.675,43) Cell stimulation products • Hydrogen peroxide (H2O2) 3% Ref. GIFRER (Gifrer Barbezat Laboratory) • Ferrous ammonium sulphate (Fe^2+) • Ferric ammonium sulphate (Fe^3+) • d) Products tested:
For the evaluation of unsaturated fatty hydroxy acid derivatives, the dilutions are prepared in freshly prepared culture medium for a concentration range of 0.02, 0.2, 2 and 20 ng/ml. • e) Protocol. Cell culturing.
Cells from the fibroblast line L929 were cultured in 96-well flat base microplates in 100 μl of DMEM supplemented with 10% foetal calf serum. These were incubated overnight at 37° C. in a humid atmosphere at 5% CO2. The blank plate without cells was evaluated using 6 wells.
Dilutions of the products to be tested and reference molecule were made up in culture medium without foetal calf serum then deposited in 7 wells at a rate of 100 μl per well.
Cells were then incubated for 3 hours at 37° C. in a humid atmosphere at 5% CO2.
Cells were rinsed in PBS 1X at a rate of 100 μl per well. They were then incubated for 30 minutes at 37° C. in a humid atmosphere at 5% CO2 with 50 μl of the H2DCF-DA probe at 5 μM.
After 30 minutes of contact with the probe alone, cells were incubated for 30 minutes at 37° C. in a humid atmosphere at 5% CO2 with the addition of 25 μl of H2O2 at 800 μM and 25 μl of ferrous iron and ferric iron solution at 8 mM in order to obtain final concentrations of 200 μM of H2O2 and 2 mM of ferrous iron and ferric iron.
Cells were then rinsed with PBS 1X at a rate of 100 μl per well then incubated for 30 minutes at 37° C. in a humid atmosphere at 5% CO2 with 100 μl of PBS 1X.
This incubation for 1 h 30 minutes at 37° C. allows intracellular esterases to deacetylate the probe into H2DCF which can be oxidized by the intracellular AOSs into DCF: a fluorescent compound whose formation is proportional to the quantity of intracellular AOSs.
The intensity of fluorescence is read on a cytofluorimeter at λexcitation=485 nm and λemission=530 nm. This reflects the amount of intracellular AOS produced.
The ratio below makes it possible to calculate the % protection against the production of intracellular AOSs for each product concentration tested (because the intensity of fluorescence or IF reflects the release of intracellular AOSs)
• Pre-incubation: 3 h • Number of tests=3 for all compounds. • Number of tests=18 for vit. E

[2] = system: membrane lipids, fibroblast line L929; assay: TBARS test, lipid peroxidation after H2O2/Fe2+/Fe3+; type: cell-based, murin; details: 400 μg/ml
[3] = system: murine melanome cell line B16-F10; assay: melanin synthesis, colorimetric assay, basal and after α-MSH; type: cell-based; details: Mus musculus, 40 μg/ml, alpha MSH 1 μM, read-out: inhibition of alpha MSH activity (melanin increase)
Procedure: The modulating effect of unsaturated fatty hydroxy acid derivatives on melanogenesis was analysed. To do this, measurement of melanin synthesis by colorimetric assay was performed on a murine melanome cell line: line B16-F10.
The effect of products was investigated in a basal situation and after stimulation by α-MSH in order to determine depigmenting capacity.
Levels of extracellular and intracellular melanin were measured by spectrophotometry at a wavelength of 405 nm according to the protocol described by Anob et al., 1999. The amount of pigment was determined using a standard melanin range and analysis on Microwin software (Berthold Biotechnologies). A total protein assay was carried out for intracellular melanin samples by means of the BCA-Copper method at 540 nm. The standard range was made up using standard protein BSA (Bovine Serum Albumin).

[4] = system: membrane lipids, fibroblast line L929; assay: TBARS test, lipid peroxidation after H2O2/Fe2+/Fe3+; type: cell-based, murin; details: 0.02 ng/ml, pretreated 16 hours
From the text: In order to evaluate membrane changes, we measured lipid peroxidation by in vitro assay of complexes between the products of lipid oxidation and thiobarbituric acid. These complexes are called TBARS (thiobarbituric acid reactive substances) and give the test its name: TBARS Test.
In order to mimic chemical oxidative stress, we treated a fibroblast line (L929) with a complex consisting of hydrogen peroxide (H2O2) and iron (Fe^2+/Fe^3+) thus reconstituting the Fenton reaction which is the source of oxygenated free radicals and particularly the hydroxyl radical (OH°) (D. A Vessey et al. 1992): H2O2+Fe^2+→OH°+OH^−+Fe^3+
The products were evaluated on a murin fibroblast line L929. Cells were pretreated with different concentrations of the product for 16 hours and were then stimulated with the H2O2/Fe^2+/Fe^3+ complex (200 μM−1 mM) for 1 hour. • Stock solutions: 100 mg/ml ethanol, 4° C. • Final solutions: 0.02 ng/ml.
Peroxidation of membrane lipids was analysed by measuring TBARS (Protocol ref. PLN°2, according to Morliere et al, 1991).
[…]. TBARS assays are therefore expressed in pmole/μg of protein. Proteins and TBARS are assayed in the intracellular medium.
Using the TBARS calculation in pmole/μg protein, we calculated the protective efficacy of various products against the oxidation of lipid membranes.
Four separate experiments were carried out. Several compounds were evaluated in the course of these experiments (the test only allows 10 molecules to be evaluated at one time). The compounds were evaluated several times and were chosen as a function of the results obtained in another test which also measured anti-radical activity (assay test for activated oxygen species).
The model used in this experiment (Fenton reaction) triggers considerable lipid peroxidation of the L929 fibroblasts. This massive release of the hydroxyl radical OH° thus generates oxidative stress in the cells, particularly in the membranes. However, in this type of oxidative reaction, the products resulting from lipid peroxidation are internalized in the cells and TBARS are therefore assayed in the intracellular medium.

transglutaminase 1 (TG1) = assay: keratinocyte differentiation, real-time RT-PCR of transglutaminase 1 transcripts; type: cell-based, human; details: NHK, 48 hours
Procedure: (§1) Normal human keratinocytes (NHK) proliferate and differentiate in vitro, forming stratified layers which mimic the basal organisation of the skin. Extracellular calcium concentrations in excess of 0.1 mM initiate a cascade of genome and non-genome events which take the keratinocytes from a proliferative phase towards a differentiation phase. Keratinocyte differentiation can then be evaluated by studying the expression of several markers such as keratins 1 and 10, transglutaminase 1, desaturase DES2, involucrine, FATP4 and ABCG1 transporters. We therefore evaluated the effect of certain hydroxyalcene carboxylic acids in an in vitro culture model.
(§2) Normal human keratinocytes are isolated from skin explants. They are cultured in KSFM medium (Gibco) with a low calcium content (0.1 mM) containing 25 μg/ml of BPE (bovine pituitary extract) and […] of EGF (epithelium growth factor). 24 hours after culturing, differentiation is triggered by the addition of calcium (final concentration 1.2 mM). The active ingredients are added or not at the same time as calcium at concentrations of 100 and 1 μg/ml in order to determine whether or not they have a potentialising effect on differentiation. Cells were then analysed 48 hours after the addition of calcium and these products.
(§3) Total RNA was extracted under cold conditions from keratinocytes.
(§4) After reverse transcription of mRNA into cDNA, PCRs were made up in 96 well plates (iCycler quantitative PCR apparatus, BioRad). Expression of transcripts of transglutaminase, desaturase (DES2), ABCG1 and FATP4 were standardized with respect to the expression of reference genes (GAPDH, UBC, HPRT).

desaturase DES2 = assay: keratinocyte differentiation, real-time RT-PCR of DES2 transcripts; type: cell-based, human; details: NHK, 48 hours
Procedure: as §1, §2, §3, §4

ABCG1 = assay: keratinocyte differentiation, real-time RT-PCR of ABCG1 transcripts; type: cell-based, human; details: NHK, 48 hours
Procedure: as §1, §2, §3, §4

FATP4 = assay: keratinocyte differentiation, real-time RT-PCR of FATP4 transcripts; type: cell-based, human; details: NHK, 48 hours
Procedure: as §1, §2, §3, §4

SMILES | Percentage inhibition of the intracellular production of AOS ([1]; 400 μg/ml, L929, 18 tests) | % membrane lipid protection, Mean [2] | % membrane lipid protection, Mean ([2]; listed as Vitamin E) | inhibition at 40 µg/mL [3] | inhibition at 0.0002 µg/mL ([1]; Mus musculus, 0.2 ng/ml, L929, read-out: Percentage inhibition of the intracellular production of AOS) | % membrane lipid protection, Mean [4] | Induction Factor vs Control (CaCl2 1.2 mM) TG1 (transglutaminase 1 (TG1); 1 μg/ml) | Induction Factor vs Control (CaCl2 1.2 mM) TG1 (transglutaminase 1 (TG1); 100 μg/ml) | Induction Factor vs Control (CaCl2 1.2 mM) DES2 (desaturase DES2; 1 μg/ml) | Induction Factor vs Control (CaCl2 1.2 mM) DES2 (desaturase DES2; 100 μg/ml) | Induction Factor vs Control (CaCl2 1.2 mM) ABCG1 (ABCG1; 1 μg/ml) | Induction Factor vs Control (CaCl2 1.2 mM) ABCG1 (ABCG1; 100 μg/ml) | Induction Factor vs Control (CaCl2 1.2 mM) FATP4 (FATP4; 1 μg/ml) | Induction Factor vs Control (CaCl2 1.2 mM) FATP4 (FATP4; 100 μg/ml) | Percentage inhibition of the intracellular production of AOS ([1]; 0.02 ng/ml, L929) | Percentage inhibition of the intracellular production of AOS ([1]; 0.2 ng/ml, L929) | Percentage inhibition of the intracellular production of AOS ([1]; 2 ng/ml, L929) | Percentage inhibition of the intracellular production of AOS ([1]; 20 ng/ml, L929)
Cc1c(C)c2c(c(C)c1O)CC[C@@](C)(CCC[C@H](C)CCC[C@H](C)CCCC(C)C)O2 [Vit. E, alphatocopherol] | Vit. E 400 μg/ml 47% | 44.66% | protects cell membranes very effectively |  |  |  |  |  |  |  |  |  |  |  |  |  |  | 
O=C1O[C@H]([C@@H](O)CO)C(O)=C1O [vitamin C] |  |  |  | 60% |  |  |  |  |  |  |  |  |  |  |  |  |  | 
O=C(O)/C=C/CCCCCCCO [n=6, R=H, Rn=H, R1=H, DHA] |  |  |  |  | 33% | 52.91% | 1.1 | 12.3 | 1.7 | 11.5 | 1.9 | 6.6 | 1.2 | 2.5 |  |  |  | 
O=C(O)C(F)=CCCCCO (mixture of isomers) [n=3, R=H, Rn=H, R1=F] |  |  |  |  |  | 38.14% | 1.5 | 0.9 | 1.7 | 1.9 | 1.5 | 1.2 | 1.2 | 1.2 | 3% | −3% | −32% | −51%
